How the values were obtained:
rat Osteocalcin in serum = assay: Rat Osteocalcin EIA in serum, orchidectomy model (Example 3); assay type: in vivo; settings: castrated rats
Method: Male Sprague-Dawley rats (Harlan Sprague Dawley) were placed on study at 14-weeks of age. They were randomized and divided into five treatment groups: vehicle only (placebo, or P) after sham operation, vehicle only after orchidectomy (Orx), Toremifene (5 mg/kg/day) after sham-operation, and Toremifene after orchidectomy, and 17-β-estradiol (0.5 mg/kg/day) after orchidectomy. Test articles were delivered subcutaneously by Alzet pumps. Pumps were re-implanted every 30 days until the end of the study. Five to six animals from each group were sacrificed after 60 and 120 days of treatment, and femurs were harvested, stripped of soft tissue and muscle, and stored individually in polypropylene vials at −80° C. until analysis of bone density and mechanical strength testing. Additionally, serum was collected on days 15, 30, 60, 90 and 120, to measure markers of bone metabolism and to perform serum chemistry.
After collection, serum was divided into 3 aliquots and stored at −80° C. until analysis. 125 ul for serum biochemistry performed by AniLytics, Gaithersburg, Md. (Bone-Specific Alkaline Phosphatase, Calcium, Phosphorus, Creatinine and Bilirubin). 100 ul for serum Rat Osteocalcin ELISA and Serum RatLaps ELISA for C-terminal telopeptides determination. The rest of the collected serum was left for repeated test if necessary.
Rat Osteocalcin EIA, Biomedical Technologies, MA
This assay is specific for rat Osteocalcin and both carboxylated and decarboxylated rat Osteocalcin are recognized. A monoclonal antibody against the N-terminal region of Osteocalcin is bound to the polystyrene wells. The assay was performed in duplicates. 100 ul of standards, control and 1 to 20 diluted samples were added to appropriate wells and incubated overnight at 4 C. After washing the strips, 100 ul of Goat polyclonal antibody of high specificity for C-terminus of rat Osteocalcin was added and incubated 60 min at 37 C. […] The reaction was stopped, and the absorbance was measured at 450 nm. […] Sample osteocalcin concentrations were determined by interpolation.

[1] = tested on: orchidectomized rats (ORX); assay: Static and dynamic bone histomorphometry of the proximal tibia (Example 4); assay type: in vivo, rat; settings: for loss of trabecular bone volume at the proximal tibia: 10 mg/kg/d Tor; for loss of trabecular bone volume at the proximal tibia / Orx-induced increase in bone turnover parameters at the proximal tibia: E 0.2 mg/kg/d; for Orx-induced increase in bone turnover parameters at the proximal tibia: Tor 5 and 10 mg/kg/d, p<0.05 vs. Orx+vehicle; for Bone Form Rate, Bone Volume Ref / Bone Form. Rate, Bone Surface Ref / Bone Formation Rate, Tissue Volume Ref / Mineral Apposition Rate / Mineralizing Surface / Osteoclast Number/Bone Surface / Osteoclast Surface / Trabecular Bone Volume / Trabecular Number / Trabecular Separation / Trabecular Thickness: proximal tibia, 6 wks, mean
Method: Eight month-old male Sprague Dawley rats were either sham-operated (SHAM) or orchidectomized (ORX). Treatment began immediately following surgery. The treatment groups were as described in Table 5.
Animals were given calcein (intraperitoneally) 12 and 2 days prior to sacrifice. Femurs and lumbar vertebra (L5) were preserved frozen wrapped in saline-soaked gauze. Tibiae and lumbar vertebrae (L4) were preserved in 10% formalin for 48 hours, then transferred to 70% ethanol for long-term storage.
Histology and Static and Dynamic Bone Histomorphometry: Approximately 1.1 cm of the proximal tibia was cut away and the frontal face was trimmed with a low-speed diamond wheel saw to expose the marrow cavity. The L4 lumbar vertebral body was prepared from the lumbar vertebra by trimming off the processes with a slow-speed diamond saw. Each proximal tibia and lumbar vertebral body was dehydrated in a series of ascending ethanol (EtOH) concentrations. Following dehydration, the bone samples were infiltrated and then embedded in a methyl methacrylate-dibutyl phthalate plastic composite. Embedded samples of the proximal tibiae were sectioned using a Leitz motorized rotary microtome equipped with a tungsten-carbide microtome knife. Once the blocks had been trimmed and faced to the sampling site, a 4-micron section was stained with Goldner's trichrome stain for bright field microscopy and an 8-micron section was left unstained for epifluorescent microscopy. Embedded lumbar vertebral body samples were also sectioned using a Leitz motorized rotary microtome equipped with a tungsten-carbide microtome knife. Once the blocks had been trimmed and faced to the sampling site, a 4-micron section was stained with Goldner's trichrome stain for bright field microscopy and an 8-micron section was left unstained for epifluorescent microscopy.
The cancellous bone in the secondary spongiosa of the proximal tibia was evaluated in a region of interest (ROI) that was 1.0 mm distal to the lowest point of the growth plate in a rectilinear region of 3×2 fields. The cancellous bone in the marrow cavity of the lumbar vertebral body was evaluated in a ROI that was approximately 0.5 mm away from the end plates and dorsal and ventral cortices.
The bone histomorphometry was performed using an OsteoMeasure software program (OsteoMetrics, Inc., Atlanta, Ga.) interfaced with a Nikon Eclipse E400 light/epifluorescent microscope and video subsystem. All slides were analyzed in a blinded manner. Total tissue area, trabecular bone area, trabecular bone perimeter and osteoclast perimeter and number were measured on 4 μm Goldner's trichrome-stained sections. Percent trabecular bone area, trabecular number, trabecular thickness, trabecular separation, osteoclast perimeter as a percentage of bone surface and osteoclast number per unit of bone surface were then calculated according to standardized formulae. For deriving the dynamic parameters, single-labeled calcein perimeter, double-labeled calcein perimeter and interlabel width (label thickness) were measured on 8 μm unstained sections. Mineralizing surface, mineral apposition rate and bone formation rate-surface, bone and tissue referents were calculated.

[2] = tested on: orchidectomized rats (ORX); assay: Compression test of the distal femur (Example 4); assay type: in vivo, rat; settings: for Elastic Modulus / Energy / Maximum Load / Stiffness / Toughness / Ultimate Strength: distal femur
Method: Eight month-old male Sprague Dawley rats were either sham-operated (SHAM) or orchidectomized (ORX). Treatment began immediately following surgery. The treatment groups were as described in Table 5. Bone strength was evaluated using a compression test at the vertebral body, a three point bending test at the femoral shaft, a compression test at the distal femur and a cantilever compression test of the femoral neck. Prior to mechanical testing, all samples were thawed in cold saline and carefully cleaned of any remaining adherent soft tissue.

[3] = up to 120 days, Toremifene 5 mg/kg/day, 17-β-estradiol 0.5 mg/kg/day s.c., FIG. 2B
[4] = Toremifene 5 mg/kg/d, Estradiol 0.2 mg/kg/d
[5] = Week 12, 5 mg/kg/d of Toremifene, Estradiol 0.2 mg/kg/d
[6] = week 6, mean, Toremifene 5 mg/kg/d, Estradiol 0.2 mg/kg/d
[7] = week 6, mean, Toremifene 10 mg/kg/d
[8] = week 12, mean, Toremifene 5 mg/kg/d, Estradiol 0.2 mg/kg/d
[9] = week 12, mean, Toremifene 10 mg/kg/d

## CN(C)CCOc1ccc(/C(=C(/CCCl)c2ccccc2)c2ccccc2)cc1 [Toremifene]
Rat Osteocalcin in serum; 15 days (p<0.05) and 30 days (p<0.02), Toremifene 5 mg/kg/day s.c., FIG. 2A
  serum osteocalcin levels: significantly reduced the osteocalcin levels in castrated animals to intact control levels
Rat Osteocalcin in serum; [3]
  serum osteocalcin levels: significantly reduce osteocalcin levels to below that of intact control rats
[1]
  loss of trabecular bone volume at the proximal tibia: very effective in preventing loss of trabecular bone volume
  Orx-induced increase in bone turnover parameters at the proximal tibia: significantly reduced the Orx-induced elevation in bone turnover parameters
[1]; [4]
  Bone Form Rate, Bone Volume Ref: 58.20 %/yr
  Bone Form. Rate, Bone Surface Ref: 10.78 um^3/um^2/yr
  Bone Formation Rate, Tissue Volume Ref: 2.30 %/yr
  Mineral Apposition Rate: 0.32 um/day
  Mineralizing Surface: 6.67%
  Osteoclast Number/Bone Surface: 3.98 #/mm
  Osteoclast Surface: 6.61%
  Trabecular Bone Volume: 5.33%
  Trabecular Number: 1.30 #/mm
  Trabecular Separation: 837.67 um
  Trabecular Thickness: 41.39 um
[1]; Toremifene 10 mg/kg/d
  Bone Form Rate, Bone Volume Ref: 21.26 %/yr
  Bone Form. Rate, Bone Surface Ref: 4.78 um^3/um^2/yr
  Bone Formation Rate, Tissue Volume Ref: 2.07 %/yr
  Mineral Apposition Rate: 0.34 um/day
  Mineralizing Surface: 3.02%
  Osteoclast Number/Bone Surface: 3.33 #/mm
  Osteoclast Surface: 5.27%
  Trabecular Bone Volume: 8.81%
  Trabecular Number: 1.85 #/mm
  Trabecular Separation: 570.89 um
  Trabecular Thickness: 45.54 um
[2]; Week 6
  bone strength, compression test of the distal femur: bone strength similar to that of Sham-operated animals
[2]; [5]
  bone strength, compression test of the distal femur: maintained similar strength
[2]; Week 12, 10 mg/kg/d Toremifene
  bone strength, compression test of the distal femur: small decrease in strength
[2]; [6]
  Elastic Modulus: 535.08 MPa
  Energy: 56.00 mJ
  Maximum Load: 469.64 N
  Stiffness: 4058.07 N/mm
  Toughness: 0.81 MJ/m^3
  Ultimate Strength: 20.54 N/mm^2
[2]; [7]
  Elastic Modulus: 440.77 MPa
  Energy: 66.19 mJ
  Maximum Load: 447.29 N
  Stiffness: 3549.70 N/mm
  Toughness: 0.91 MJ/m^3
  Ultimate Strength: 18.47 N/mm^2
[2]; [8]
  Elastic Modulus: 379.32 MPa
  Energy: 53.13 mJ
  Maximum Load: 458.79 N
  Stiffness: 3175.07 N/mm
  Toughness: 0.69 MJ/m^3
  Ultimate Strength: 18.09 N/mm^2
[2]; [9]
  Elastic Modulus: 418.05 MPa
  Energy: 45.57 mJ
  Maximum Load: 411.45 N
  Stiffness: 3366.63 N/mm
  Toughness: 0.62 MJ/m^3
  Ultimate Strength: 16.81 N/mm^2

## C[C@]12CC[C@@H]3c4ccc(O)cc4CC[C@H]3[C@@H]1CC[C@@H]2O [17-β-Estradiol]
Rat Osteocalcin in serum; [3]
  serum osteocalcin levels: significantly reduce osteocalcin levels to below that of intact control rats
[1]
  loss of trabecular bone volume at the proximal tibia: very effective in preventing loss of trabecular bone volume
  Orx-induced increase in bone turnover parameters at the proximal tibia: significantly inhibited
[1]; [4]
  Bone Form Rate, Bone Volume Ref: 42.70 %/yr
  Bone Form. Rate, Bone Surface Ref: 10.63 um^3/um^2/yr
  Bone Formation Rate, Tissue Volume Ref: 3.13 %/yr
  Mineral Apposition Rate: 0.43 um/day
  Mineralizing Surface: 5.31%
  Osteoclast Number/Bone Surface: 3.77 #/mm
  Osteoclast Surface: 6.35%
  Trabecular Bone Volume: 8.26%
  Trabecular Number: 1.75 #/mm
  Trabecular Separation: 572 um
  Trabecular Thickness: 47.11 um
[2]; Week 6
  bone strength, compression test of the distal femur: highest values in all groups
[2]; [5]
  bone strength, compression test of the distal femur: highest values at Week 12
[2]; [6]
  Elastic Modulus: 579.48 MPa
  Energy: 66.00 mJ
  Maximum Load: 561.45 N
  Stiffness: 4758.55 N/mm
  Toughness: 0.91 MJ/m^3
  Ultimate Strength: 22.89 N/mm^2
[2]; [8]
  Elastic Modulus: 473.02 MPa
  Energy: 55.94 mJ
  Maximum Load: 487.94 N
  Stiffness: 3714.71 N/mm
  Toughness: 0.78 MJ/m^3
  Ultimate Strength: 20.66 N/mm^2

Source: patent US7524866B2, “Prevention and treatment of androgen—deprivation induced osteoporosis” (GTx, Inc., priority 2001, dated 2009)
